Data published in patent US5451599A, “Complex salts of hematoporphyrin and of its derivatives, their synthesis, and therapeutic agent” (Wojskowa Akademia Techniczna im. Jaroslawa Dabrowskiego, priority 1991, dated 1995).

Experiments:
[1] = tested on: Hela (cervix uteri cancer cells); assay: 48 h incubation with the salts: cell fluorescence, living cells, multiplication coefficient (Table 1); type: cell-based, Human; settings: 48 hs, 50 mcg/ml
Method: (§1) New compounds of formula 1 were tested on cell lines. Use was made of 9 different neoplastic cell lines which were incubated for 48 hs with various new salts of protoporphyrin and with a new salt of the conventionally applied HpD preparation/hematoporphyrin derivatives/obtained according to Lipson et al. All compounds were used in the form of aqueous solutions, at a concentration of 50 mcg/ml. Determination was made of:
(§2) 1/ Cell fluorescence /F/: after 48 hs incubation, the cells were washed away, the intensity of fluorescence was measured in a fluorescence microscope and was expressed on an arbitrary scale of 0-4 scores;
(§3) 2/ Percentage of living cells /P %/ after 48 hs incubation;
(§4) 3/ Cell multiplication coefficient /M/ in the presence of different preparations, expressed as: [formula]

CL = assay: as above; type: cell-based; settings: 48 hs, 50 mcg/ml
Method: as §1, §2, §3, §4

[2] = tested on: MA-104 (Rhesus monkey embryo kidney cancer cells); assay: as above; type: cell-based; settings: 48 hs, 50 mcg/ml
Method: as §1, §2, §3, §4

PZ = assay: as above; type: cell-based; settings: 48 hs, 50 mcg/ml
Method: as §1, §2, §3, §4

[3] = tested on: KB (oral cavity cancer cells); assay: 48 h incubation with the salts: cell fluorescence, living cells, multiplication coefficient (Table 2); type: cell-based, Human; settings: 48 hs, 50 mcg/ml
Method: as §1, §2, §3, §4
KB oral cavity cancer cells

[4] = tested on: HBT-39/w (breast cancer cells); assay: as above; type: cell-based, Human; settings: 48 hs, 50 mcg/ml
Method: as §1, §2, §3, §4

[5] = tested on: GR (GRMT/F6, mammary gland cancer cells of GR-strain mice); assay: as above; type: cell-based, Murine; settings: 48 hs, 50 mcg/ml
Method: as §1, §2, §3, §4
GRMT/F6 mammary gland cancer cells of GR-strain mice

[6] = tested on: HEp-2 (larynx cancer cells); assay: 48 h incubation with the salts: cell fluorescence, living cells, multiplication coefficient (Table 3); type: cell-based, Human; settings: 48 hs, 50 mcg/ml
Method: as §1, §2, §3, §4
Hep-2 larynx cancer cells

[7] = tested on: Mm (Mm5MT/C1, mammary gland cancer cells of C3H-strain mice); assay: as above; type: cell-based, Murine; settings: Mm; 48 hs; 50 mcg/ml
Method: as §1, §2, §3, §4
mammary gland cancer cells of C3H-strain mice

[8] = tested on: T-47D (breast cancer cells); assay: as above; type: cell-based, Human; settings: 48 hs, 50 mcg/ml
Method: as §1, §2, §3, §4
T-47D breast cancer cells

Structure (SMILES)	Cell fluorescence /F/ [1]	Cell multiplication coefficient /M/ [1]	Percentage of living cells /P %/ [1]	Cell fluorescence /F/ (CL)	Cell multiplication coefficient /M/ (CL)	Percentage of living cells /P %/ (CL)	Cell fluorescence /F/ [2]	Cell multiplication coefficient /M/ [2]	Percentage of living cells /P %/ [2]	Cell fluorescence /F/ (PZ)	Cell multiplication coefficient /M/ (PZ)	Percentage of living cells /P %/ (PZ)	Cell fluorescence /F/ [3]	Cell multiplication coefficient /M/ [3]	Percentage of living cells /P %/ [3]	Cell fluorescence /F/ [4]	Cell multiplication coefficient /M/ [4]	Percentage of living cells /P %/ [4]	Cell fluorescence /F/ [5]	Cell multiplication coefficient /M/ [5]	also measured
CC1=C(CCC(=O)O)c2cc3[nH]c(cc4nc(cc5[nH]c(cc1n2)c(C(C)NC(C)C(=O)O)c5C)C(C(C)NC(C)C(=O)O)=C4C)c(C)c3CCC(=O)O.N=C(N)NCCC[C@H](N)C(=O)O.N=C(N)NCCC[C@H](N)C(=O)O (stereo not drawn) [PP/Ala/2 /Arg/2, l-arginine di/N-alanyl/-protoporphyrinate]	+	0,11	11%	-	0,30	30%	++	0,50	50%	++	0,15	15%	+++	0	0%	++	0,33	17%	+	0,50	Percentage of living cells /P %/ [5]: 50%; Cell fluorescence /F/ [6]: ++; Cell multiplication coefficient /M/ [6]: 0,21; Percentage of living cells /P %/ [6]: 21%; Cell fluorescence /F/ [7]: +++; Cell multiplication coefficient /M/ [7]: 0,84; Percentage of living cells /P %/ [7]: 86%; Cell fluorescence /F/ [8]: +++; Cell multiplication coefficient /M/ [8]: 0,82; Percentage of living cells /P %/ [8]: 85%
CC1=C(CCC(=O)O)c2cc3[nH]c(cc4nc(cc5[nH]c(cc1n2)c(C(C)NC(CC(=O)O)C(=O)O)c5C)C(C(C)NC(CC(=O)O)C(=O)O)=C4C)c(C)c3CCC(=O)O.N=C(N)NCCC[C@H](N)C(=O)O.N=C(N)NCCC[C@H](N)C(=O)O (stereo not drawn) [PP/Asp/2 /Arg/2, l-arginine di/N-aspartyl/-protoporphyrinate]	+++	0,50	38%	+	0,55	55%	+++	0,52	17%	+	0,15	14%	++	0,12	16%	+++	0,81	48%	++	0,73	Percentage of living cells /P %/ [5]: 25%; Cell fluorescence /F/ [6]: ++++; Cell multiplication coefficient /M/ [6]: 0,40; Percentage of living cells /P %/ [6]: 47%; Cell fluorescence /F/ [7]: +++; Cell multiplication coefficient /M/ [7]: 0,92; Percentage of living cells /P %/ [7]: 70%; Cell fluorescence /F/ [8]: ++++; Cell multiplication coefficient /M/ [8]: 0,92; Percentage of living cells /P %/ [8]: 65%
CC1=C(CCC(=O)O)c2cc3[nH]c(cc4nc(cc5[nH]c(cc1n2)c(C(C)NC(CS)C(=O)O)c5C)C(C(C)NC(CS)C(=O)O)=C4C)c(C)c3CCC(=O)O.N=C(N)NCCC[C@H](N)C(=O)O.N=C(N)NCCC[C@H](N)C(=O)O (stereo not drawn) [PP/Cys/2 /Arg/2, l-arginine di/N-cysteyl/-protoporphyrinate]	++	0,43	55%	-	0,30	30%	++	0,16	11%	+	0,40	40%	+	0,12	12%	+	0,53	42%	+++	0,75	Percentage of living cells /P %/ [5]: 50%; Cell fluorescence /F/ [6]: ++++; Cell multiplication coefficient /M/ [6]: 0,32; Percentage of living cells /P %/ [6]: 60%; Cell fluorescence /F/ [7]: +++; Cell multiplication coefficient /M/ [7]: 0,73; Percentage of living cells /P %/ [7]: 40%; Cell fluorescence /F/ [8]: +; Cell multiplication coefficient /M/ [8]: 0,84; Percentage of living cells /P %/ [8]: 26%
CC1=C(CCC(=O)O)c2cc3[nH]c(cc4nc(cc5[nH]c(cc1n2)c(C(C)NC(Cc1ccccc1)C(=O)O)c5C)C(C(C)NC(Cc1ccccc1)C(=O)O)=C4C)c(C)c3CCC(=O)O.N=C(N)NCCC[C@H](N)C(=O)O.N=C(N)NCCC[C@H](N)C(=O)O (stereo not drawn) [PP/Fen/2 /Arg/2, l-arginine di/N-phenylalanyl/protoporphyrinate]	+++	0,14	5%	++	0	0%	++	0,35	35%	+	0,08	8%	++	0,12	12%	++++	0,11	11%	+++	0	Percentage of living cells /P %/ [5]: 0%; Cell fluorescence /F/ [6]: ++; Cell multiplication coefficient /M/ [6]: 0,08; Percentage of living cells /P %/ [6]: 3%; Cell fluorescence /F/ [7]: ++++; Cell multiplication coefficient /M/ [7]: 0,37; Percentage of living cells /P %/ [7]: 12%; Cell fluorescence /F/ [8]: +; Cell multiplication coefficient /M/ [8]: 0,60; Percentage of living cells /P %/ [8]: 60%
